# Experimental data reported in patent US20230293629A1, “METHODS FOR ATTENUATING RELEASE OF INFLAMMATORY MEDIATORS AND PEPTIDES USEFUL THEREIN” (BIOMARCK PHARMACEUTICALS LTD., priority 2006, published 2023).
# Where a SMILES comes first, the peptide text is derived from it. Where no end group is shown, it is not given here. The star is where a group is joined. Myristoyl = CCCCCCCCCCCCCC(=O)*
# What was measured:
# [1] = Qualitative solubility of peptides in 0.5 N saline, pH 6.5
# U937 cells = assay: PMA-stimulated lysozyme secretion by U937 cells; assay type: cell-based, human; details: for % Inhibition Lysozyme: 50 μM test peptide, two hour incubation with 100 nM PMA, U937 cells
# Protocol: Three types of human leukocyte cell lines, specifically the promyelocytic cell line HL-60 clone 15, the monocytic cell line U937, and the lymphocyte natural killer cell line NK-92 were purchased from American Type Culture Collection (ATCC; Rockville, MD). HL-60 clone 15 cells (ATCC CRL-1964) were maintained in medium consisting of RPMI 1640 with L-glutamine supplemented with 10% heat-inactivated fetal bovine serum (Gibco; Invitrogen Co., Carlsbad, CA), 50 IU/ml penicillin, 50 μg/mL streptomycin, and 25 mM HEPES buffer, pH 7.8, at 37° C. in an atmosphere containing 5% CO2. Final differentiation to an eosinophil-like phenotype was initiated by culturing cells at 5×10^5 cells/ml in the above medium containing 0.5 mM butyric acid (Sigma-Aldrich Co.) for 5 days as previously described (Tiffany H L, Li F, Rosenberg H F. Hyperglycosylation of eosinophil ribonucleases in a promyelocytic leukemia cell line and in differentiated peripheral blood progenitor cells. J Leukoc Biol 1995; 58:49-54; Tiffany H L, Alkhatib G, Combadiere C, Berger E A, Murphy P M. CC chemokine receptors 1 and 3 are differentially regulated by IL-5 during maturation of eosinophilic HL-60 cells. J Immunol 1998; 160:1385-1392). U937 cells (ATCC CRL-1593.2) were grown at 37° C. in an atmosphere of 5% CO2 in complete medium consisting of RPMI 1640 with L-glutamine supplemented with 10% FBS, 50 IU/ml penicillin, and 50 μg/mL streptomycin. NK-92 cells (ATCC CRL-2407) were maintained in alpha-MEM medium (Sigma-Aldrich Co.) supplemented with 20% FBS, 100 U/ml of interleukin-2 (IL-2) (Chemicon International, Inc., Temecula, CA), 5×10^−5 M of 2-mercaptoethanol, 50 IU/mL penicillin, and 50 μg/ml streptomycin at 37° C. in an atmosphere containing 5% CO2. Cell morphology was judged by assessment of Wright-Giemsa-stained cells. Viability of cells harvested for experiments was assessed by trypan blue exclusion and populations of cells with viability >95% were used.
# HL-60 clone 15, U937, and NK-92 cells were washed and resuspended at 2.5×10^6 cells/ml in phenol red-free RPMI-1640 (Cellgro; Mediatech, Inc.) for all degranulation assays. Aliquots of cells in 15 ml tubes were preincubated with indicated concentrations of MANS, RNS, or a test peptide for 10 min at 37° C. The cells then were stimulated with PMA for up to 2 hr. A control reference (PMA control reference) was established for each cell type using HL-60 clone 15, U937, and NK-92 cells, respectively, which were washed and resuspended at 2.5×10^6 cells/ml in phenol red-free RPMI-1640 and stimulated with PMA but in the absence of MANS, RNS, or a test peptide for the same time periods. The reaction was terminated by placing tubes on ice and centrifuging cells at 400 g for 5 min at 4° C.
# For measurements of released MPO from neutrophils and released lysozyme from U937 cells, we were able to quantify secretion by using as standards human MPO and egg white […], respectively. For released EPO from HL-60 clone 15 cells and for released granzyme from NK-92 cells, no standards were available to use for quantification. […] To measure intracellular EPO in HL-60 clone 15 cells and intracellular granzyme in NK-92 cells, appropriate aliquots of 0.1% triton X-100-lysed cells were taken for quantification of intracellular granule proteins as described below. All treatments were expressed as percentage of control to minimize variability between cultures.
# Lysozyme secreted by U937 cells was measured using a spectrophotometric assay as described previously (Balboa M A, Saez Y, Balsinde J. Calcium-independent phospholipase A2 is required for lysozyme secretion in U937 promonocytes. J Immunol 2003; 170:5276-5280) with slight modification. Thus, 100 μL of sample was mixed with 100 μL of a Micrococcus lysodeikticus (Sigma-Aldrich Co.) suspension (0.3 mg/ml in 0.1 M sodium phosphate buffer, pH 7.0) in a 96-well microplate. The decrease in absorbance at 450 nm was measured at room temperature. […]
compound,measurement,setting,value
"CCCCCCCCCCCCCC(=O)NCC(=O)N[C@H](C(=O)N[C@@H](C)C(=O)N1CCC[C@H]1C(=O)N[C@@H](C)C(=O)N[C@@H](C)C(=O)N[C@@H](CCC(=O)O)C(=O)NCC(=O)N[C@@H](C)C(=O)NCC(=O)N[C@@H](C)C(=O)N[C@@H](CCC(=O)O)C(=O)N[C@H](C(=O)N[C@@H](CCCCN)C(=O)N[C@@H](CCCNC(=N)N)C(=O)N[C@@H](C)C(=O)N[C@@H](CO)C(=O)N[C@@H](C)C(=O)N[C@@H](CCC(=O)O)C(=O)N[C@@H](C)C(=O)N[C@@H](CCCCN)C(=O)N[C@@H](CCC(N)=O)C(=O)N[C@@H](C)C(=O)N[C@@H](Cc1ccccc1)C(=O)O)C(C)C)[C@@H](C)O [RNS, reference compound] (Myristoyl-GTAPAAEGAGAEVKRASAEAKQAF-OH; C-terminus assumed)",solubility,[1],> 15 mg/mL
same,% Inhibition Lysozyme,U937 cells,0%
same,effect on PMA-enhanced lysozyme secretion,U937 cells; any of the time points or concentrations tested,did not affect
CCCCCCCCCCCCCC(=O)NCC(=O)N[C@@H](C)C(=O)N[C@@H](CCC(N)=O)C(=O)N[C@@H](Cc1ccccc1)C(=O)N[C@@H](CO)C(=O)N[C@@H](CCCCN)C(=O)N[C@H](C(=O)N[C@@H](C)C(=O)N[C@@H](C)C(=O)N[C@@H](CCCCN)C(=O)NCC(=O)N[C@@H](CCC(=O)O)C(=O)N[C@@H](C)C(=O)N[C@@H](C)C(=O)N[C@@H](C)C(=O)N[C@@H](CCC(=O)O)C(=O)N[C@@H](CCCNC(=N)N)C(=O)N1CCC[C@H]1C(=O)NCC(=O)N[C@@H](CCC(=O)O)C(=O)N[C@@H](C)C(=O)N[C@@H](C)C(=O)N[C@H](C(=O)N[C@@H](C)C(=O)O)C(C)C)[C@@H](C)O [MANS] (Myristoyl-GAQFSKTAAKGEAAAERPGEAAVA-OH; C-terminus assumed),reduction in lysozyme secretion relative to the PMA control reference,"U937 cells; 10 μM, 1 hour",about 20%
same,lysozyme secretion relative to control as 100%,"U937 cells; 10 μM, 1 hour, PMA control reference about 210%",about 170%
same,reduction in lysozyme secretion relative to the PMA control reference,"U937 cells; 10 μM, 2 hour",about 20%
same,lysozyme secretion relative to control as 100%,"U937 cells; 10 μM, 2 hour, PMA control reference about 240%",about 195%
same,% Inhibition Lysozyme,U937 cells,40.8%
same,reduction in lysozyme secretion relative to the PMA control reference,"U937 cells; 50 μM, 1 hour",about 20%
same,lysozyme secretion relative to control as 100%,"U937 cells; 50 μM, 1 hour, PMA control reference about 210%",about 170%
same,reduction in lysozyme secretion relative to the PMA control reference,"U937 cells; 50 μM, 2 hour",about 25%
same,lysozyme secretion relative to control as 100%,"U937 cells; 50 μM, 2 hour, PMA control reference about 240%",about 185%
same,reduction in lysozyme secretion relative to the PMA control reference,"U937 cells; 100 μM, 1 hour",about 45%
same,lysozyme secretion relative to control as 100%,"U937 cells; 100 μM, 1 hour, PMA control reference about 210%",about 115%
same,reduction in lysozyme secretion relative to the PMA control reference,"U937 cells; 100 μM, 2 hour",about 40%
same,lysozyme secretion relative to control as 100%,"U937 cells; 100 μM, 2 hour, PMA control reference about 240%",about 140%
Ac-GAQFSKTAAK [Ac-GAQFSKTAAK],solubility,[1],> 100 mg/mL
same,% Inhibition Lysozyme,U937 cells,41.2%
Ac-GAQFSKTAAKGEAAAERPGEAAVA,solubility,[1],> 250 mg/mL
same,% Inhibition Lysozyme,U937 cells,39.8%
